{"source": "paper PMC10350920", "about": "“Development of a 2,4-Diaminothiazole Series for the Treatment of Human African Trypanosomiasis Highlights the Importance of Static–Cidal Screening of Analogues” (Journal of Medicinal Chemistry, 2023)", "key": {"[1]": {"system": "BSF T. b. brucei “single marker” S427", "experiment": "Drug sensitivity assay with bloodstream-form T. brucei", "format": "cell-based", "conditions": "for EC50: mean values, number of replicates in parentheses", "procedure": "(§1) Drug sensitivity assays with BSF T. b. brucei “single marker” S427 and human MRC-5 fibroblasts were conducted as previously described.[43]"}, "human MRC-5 fibroblasts": {"system": "human MRC-5 fibroblasts", "experiment": "Mammalian cell counter screen (MRC-5)", "format": "cell-based", "conditions": "for SI: selectivity index (EC50 MRC5/EC50 T. brucei)", "procedure": "as §1"}, "[2]": {"experiment": "Mouse liver microsomal intrinsic clearance", "format": "in vitro ADME", "outline": "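Compound (0.5 μM) incubated with liver microsomes (0.5 mg/mL, 50 mM potassium phosphate pH 7.4) and excess NADPH; samples quenched at 0–30 min and analysed by UPLC–MS/MS. Rate constant from exponential decay of compound/internal standard ratio; CLint scaled with 52.5 mg protein/g liver.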"}, "[3]": {"experiment": "Pharmacokinetics in NMRI mice", "format": "in vivo, female NMRI mice", "protocol": "To determine compound exposure, compounds were dosed by gavage (16, 38) at 10 mg kg^–1 free base (16, 38), dose volume; and 5 mL kg^–1 (16, 38), dose vehicle (10% DMSO/40% PEG400/50% Milli-Q) to female NMRI mice, n = 3/dose level (16), or Sprague Dawley rats (38). Blood samples were taken from each mouse/rat at 5, 15, and 30 min, 1, 2, 4, 6, and 8 h postdose and mixed with two volumes of distilled water. After suitable sample preparation, the concentration of the test compound in blood was determined by UPLC–MS/MS using a Quattro Premier XE (Waters, USA). Pharmacokinetic parameters were derived from the mean blood concentration–time curve using PKsolutions software v 2.0 (Summit Research Services, USA)."}, "T. b. brucei S427": {"system": "T. b. brucei S427", "experiment": "Stage 1 efficacy study in NMRI mice", "format": "in vivo", "procedure": "Stage 1 efficacy experiments using T. b. brucei S427 were performed as described,[44] with minor modifications. In brief, male SD rats (38) or female HRN (16) and NMRI (16, 38) mice (3–5 per group) were injected intraperitoneally with 1 × 10^4 BSFs of T. brucei. These BSFs come from a stock of cryopreserved stabilates containing 10% glycerol. The stabilate was suspended in 20 mM Hanks’ balanced salt solution with glucose to obtain a trypanosome concentration of 5 × 10^4 cells mL^–1. Each mouse was injected with 0.2 mL. […] Dose concentrations were 1.25, 2.5, 5, 7.5, 10, 30, and 50 mg kg^–1 free base (16) or 100 mg kg^–1 free base (38). The doses were prepared fresh daily, using 5% DMSO/40% PEG400/55% Milli-Q (16) or 15% solutol/85% Milli-Q (38), and the dose volume was 10 mL kg^–1. One group of three mice was an untreated control group."}, "[4]": {"experiment": "Mouse brain penetration (brain:blood ratio)", "format": "in vivo, female NMRI mice", "conditions": "mice, bolus of test compound, total compound", "procedure": "Medicines for HAT are required to treat both acute and chronic infections, where parasites pass through the blood/brain barrier and enter the CNS. With this in mind, mice were dosed with an […] bolus of our test compounds, and compound concentrations in blood and brain were determined by UPLC–MS/MS. […] The brain fraction unbound was 0.0063 for 16 and 0.0313 for 38. Brain penetration of the series as a whole tracked with the generally accepted rules of CNS penetration, with a lower topological PSA (TPSA) and molecular weight compounds having an increased B/B ratio (Table S2 and Figure S1). However, the link between log P and the B/B ratio was slightly less convincing. […] This difference could be explained by 18 being a substrate for the P-glycoprotein efflux pump.\nEach compound was dosed as an IV bolus at 10 mg kg^–1 dissolved in 15% solutol/Milli-Q (dose volume 10 mL kg^–1) to female NMRI mice (n = 3). At 30 min following the IV bolus of the test compound, mice (n = 3/time point) were placed under terminal anesthesia with isoflurane. A blood sample was taken by cardiac puncture and added to two volumes of distilled water, and the brain was removed. […] For each mouse at each time point, the concentration in the brain (ng g^–1) was divided by the concentration in blood (ng mL^–1) to give a brain: blood ratio."}, "[5]": {"experiment": "Equilibrium dialysis, free fraction in brain", "format": "in vitro ADME, mouse", "procedure": "In brief, a 96-well equilibrium dialysis apparatus was used to determine the free fraction in plasma and the brain (HT Dialysis LLC, Gales Ferry, CT). Isotonic buffer was prepared using 8.69 g of Na2HPO4, 1.9 g of KH2PO4, and 4.11 g of NaCl dissolved in 1 L of Milli-Q water, and the pH was adjusted to 7.4. Artificial CSF was prepared using 3.652 g of NaCl, 93.2 mg of KCl, 119.96 mg of MgCl2, 92.61 mg of CaCl2, and 268 mg of Na2HPO4 heptahydrate dissolved in 0.5 L of water, and the pH was adjusted to 7.4. Membranes [12–14 (plasma) or 6–9 (brain) kDA cutoff] were conditioned in deionized water for 60 min, followed by conditioning in 80:20 deionized water/ethanol for 20 min, and then rinsed in isotonic buffer (plasma) or […] (brain) before use. Female CD1 mouse plasma was defrosted and centrifuged for 10 min at 3000 rpm (Allegra X12-R, Beckman Coulter, USA). The control mouse brain was homogenized in two volumes of artificial CSF in a Covaris S2 acoustic homogenizer. […] All samples were analyzed by means of UPLC/MS/MS on a Quattro Premier XE or Micro TQs mass spectrometer (Waters Corporation, USA). The unbound fraction was determined as the ratio of the peak area in the buffer to that in the matrix."}, "[6]": {"conditions": "100 mg kg^–1 IP, assuming linearity of exposure"}}, "note": "Where “and” joins values, the source holds several entries; their conditions need not be identical. Equal entries are not always repeated. Entries after “also recorded” stand apart in the source; their conditions may differ. Where two headings read alike, the source gives them in different places."}
{"compound": "CC(C)(O)CC(=O)c1sc(Nc2ccc(F)c(F)c2)nc1N", "note": "[Compound 38, 1-(4-Amino-2-((3,4-difluorophenyl)amino)thiazol-5-yl)-3-hydroxy-3-methylbutan-1-one]", "values": [{"measurement": "EC90", "setting": "[1]; Trypanosoma brucei, T. brucei", "result": "0.131 µg/mL and 400 nM"}, {"measurement": "EC50", "setting": "[1]; Trypanosoma brucei", "result": 180, "unit": "nM"}, {"measurement": "SI", "setting": "human MRC-5 fibroblasts", "result": 256}, {"measurement": "CLint (mouse)", "setting": "[2]", "result": 2.2, "unit": "mL·min/g"}, {"measurement": "free Cmax in blood, extrapolated", "setting": "[3]; [6]", "result": 16, "unit": "µM"}, {"measurement": "free Cmax, extrapolated", "setting": "[3]; [6]", "result": 5200, "unit": "ng mL^–1"}, {"measurement": "Cmax (total blood)", "setting": "[3]; NMRI mice, IP, 50 mg kg^–1", "result": "18,000 ng mL^–1"}, {"measurement": "Cmax", "setting": "[3]; female, NMRI, mouse, whole blood, mice, IP, 50 mg kg^–1, read-out: total blood Cmax", "result": 55, "unit": "µM"}, {"measurement": "AUC", "setting": "[3]; female, mouse, whole blood, NMRI mice, IP, 50 mg kg^–1, read-out: AUC (converted)", "result": 31700, "unit": "ng·h/mL"}, {"measurement": "Tmax", "setting": "[3]; female, mouse, whole blood, NMRI mice, IP, 50 mg kg^–1, read-out: Tmax", "result": 30, "unit": "min"}, {"measurement": "free Cmax in the brain, extrapolated", "setting": "[3]; mice, 100 mg kg^–1 IP", "result": 4.6, "unit": "µM"}, {"measurement": "stage 1 efficacy, parasitemia", "setting": "T. b. brucei S427; bid 4 days 100 mg kg^–1", "result": "no reduction in parasitemia"}, {"measurement": "Kp at 30 min", "setting": "[4]; female, NMRI, mouse, brain and blood, 10 mg kg^–1, read-out: brain/blood (B/B) ratio", "result": 1.4}, {"measurement": "fraction unbound at 5 h, 10 μg mL^–1", "setting": "[5]; mouse, brain homogenate, pH 7.4, read-out: brain free fraction (Fu, fraction unbound)", "result": 0.0313}]}
{"compound": "(4-Amino-2-(cyclohexylamino)thiazol-5-yl)(2,6-difluorophenyl)methanone [Compound 16]", "values": [{"measurement": "EC50", "setting": "[1]", "result": 110, "unit": "nM"}, {"measurement": "EC50", "setting": "human MRC-5 fibroblasts; mean values, number of replicates in parentheses, read-out: MRC-5 EC50", "result": 1200, "unit": "nM"}, {"measurement": "SI", "setting": "human MRC-5 fibroblasts", "result": 11}, {"measurement": "CLint (mouse)", "setting": "[2]", "result": 15, "unit": "mL·min/g"}, {"measurement": "AUC", "setting": "[3]; NMRI mice, IP, 10 mg kg^–1", "result": "66,000 ng mL h^–1"}, {"measurement": "Tmax", "setting": "[3]; NMRI mice, IP, 10 mg kg^–1", "result": 15, "unit": "min"}, {"measurement": "AUC", "setting": "[3]; NMRI mice, PO, 10 mg kg^–1", "result": 5700, "unit": "ng mL h^–1"}, {"measurement": "Cmax", "setting": "[3]; NMRI mice, PO, 10 mg kg^–1", "result": 33, "unit": "ng mL^–1"}, {"measurement": "Tmax", "setting": "[3]; NMRI mice, PO, 10 mg kg^–1", "result": 30, "unit": "min"}, {"measurement": "stage 1 efficacy (cure = no parasitemia for 30 days)", "setting": "T. b. brucei S427; IP 10 mg kg^–1 twice daily for 4 days", "result": "complete cure; also recorded: efficacious"}, {"measurement": "brain/blood (B/B) ratio", "setting": "[4]", "result": 3.3}, {"measurement": "brain free fraction (Fu, fraction unbound)", "setting": "[5]; brain", "result": 0.0063}]}
